Where “and” joins values, the source holds several entries; their conditions need not be identical. Equal values may be shown once.

Holding throughout (format): in vivo, female turkeys
Experiment [1] relates to H. meleagridis. The experiment in a line: Controlling Histomoniasis in turkeys (QSC HD 1500 ppm). Particulars: MED 30 mg/kg bird/day. On the procedure:
A total of 160 3-week-old female turkeys were randomly grouped into 10 pens. The groups were: control (−) CON, control (+) POS, metronidazole (MED), two groups treated with QSC at 1500 ppm (HD greater dose than in the previous trial). The CON group was not challenged or treated with any product; POS control was only inoculated with a H. meleagridis suspension, and the MED group was inoculated with the same dose and treated with metronidazole, 30 mg/kg bird/day. […] Table 1208 summarizes bird distribution according to treatments, as well as the appropriate product dosage.
The treatments were started as of 3 weeks of age. The H. meleagridis challenge suspension was 100000 cell/mL, approximately, and was inoculated at 4 weeks of age, via cloacal route. Female turkey mortality rate was recorded throughout the trial, and lesions were measured by using a previously standardized lesion scoring at 8 weeks of age.

In experiment [2] the test system is H. meleagridis. The experiment is described as follows: Controlling Histomoniasis in turkeys (QSC and QHS). Particulars: MED 30 mg/kg bird/day; QHS 1500 ppm; QSC 750 ppm. On the procedure: A total of 160 3-week-old female turkeys were randomly grouped into 10 pens. The groups were: control (−) CON, control (+) POS, MED (metronidazole), and two different treatments, (QSC and QHS's active content under treatment) is set). Control group (−) was not challenged or treated with any product, control (+) was only inoculated with a H. meleagridis suspension, and the MED group was inoculated with the same dose and treated with metronidazole, 30 mg/kg bird/day. […] Table 22 summarizes bird distribution according to treatments, as well as the appropriate product dosage.
The treatments were started as of 3 weeks of age. The H. meleagridis challenge suspension contained 100000 cells/mL, approximately, and was inoculated as of 4 weeks of age, cloacal route. The female turkey mortality rate was recorded throughout the trial, and lesions were measured by using a previously standardized lesion scoring at 8 weeks of age.

The test system of experiment [3] is H. meleagridis. The experiment is described as follows: Controlling Histomoniasis in turkeys (BQ batches 3250 ppm). As to conditions: MED 30 mg/kg bird/day; BQ-1, BQ-2, BQ-3 3250 ppm. On the procedure: A total of 200 3-week-old young female turkeys were randomly grouped in 10 pens. The groups were: control (−) CON, control (+) POS, MED (metronidazole), 3 groups treated with BQ. BQ is a quillay wood-based additive where three different batches were evaluated with (2.5-5.5%) saponins.
The treatments were started as of 3 weeks of age. The H. meleagridis challenge suspension contained 100000 cell/ml, approximately, and was inoculated at 4 weeks of age, via cloacal route. The female turkey mortality rate was recorded throughout the trial, and lesions were measured by using a previously standardized lesion scoring at 8 weeks of age.

The test system of experiment [4] is H. meleagridis. The experiment is described as follows: Controlling Histomoniasis in turkeys (QSC, QS15 750 ppm). As to conditions: MED 30 mg/kg bird/day, QSC 750 ppm. On the procedure:
A total of 200 3-week-old female turkeys were randomly grouped into 9 pens. The groups were: control (−) (CON), control (+) (POS), metronidazole (MED), two 750 PPM QSC-treated groups, and two groups treated with 750 PPM QS15-treated groups. The CON group was not challenged or treated with any product, POS was only inoculated a H. meleagridis suspension, and the MED group was inoculated with the same dose and treated with 30 mg/kg metronidazole per bird/day. The CON group was comprised of 16 young female turkeys, while the remainder comprised 23 each. Table 17 summarizes the bird distribution according to treatment, as well as the appropriate product dosage.
The treatments were started at 3 weeks of age. The H. meleagridis challenge suspension had approximately 100000 cells/mL and was inoculated at 4 weeks of […] age. Weight was measured at 3, 6 and 8 weeks of age. Feed intake was estimated at 6 and 8 weeks of age. The young female turkey mortality rate was recorded throughout the trial, and lesions were measured by using a previously standardized lesion scoring at 8 weeks of age.

With `Cc1ncc([N+](=O)[O-])n1CCO` [MED, metronidazole], the Cecum lesion score with H. meleagridis [1] worked out at 1.3b; in the experiment on H. meleagridis [2], 1.5c; in the experiment with H. meleagridis [3], 0.85a; with H. meleagridis [4], 0.2a. The Liver lesion score amounted to 0.28ab in the experiment with H. meleagridis [1], 0.3a with H. meleagridis [2], 0.5ab in the experiment with H. meleagridis [3] and 0.0a in the experiment on H. meleagridis [4]. The “Mortality (%)” value in the experiment on H. meleagridis [1] is 10% and 10a %; in the experiment with H. meleagridis [2], 25% and 25.00ab %; in the experiment with H. meleagridis [3], 10% and 10.00ab %; in the experiment with H. meleagridis [4] it was 2% and 2a %.
